Structures can show the parent of a compound that is named as a salt.
Key:
[1] = target: T1, MCH1 receptor (Mus musculus, UniProt Q8JZL2); assay: Displacement of [125I]-Tyr-S36057 binding to MCH1 receptors, mouse brain membrane preparations; details: in mice, brain membranes, read-out: IC50 (concentration that inhibits 50% of the specific binding)
T1 construct: from tissue; host or cells: mouse brain membranes
Procedure: (§1) The measurement of the affinity of the compounds of the invention for the MCH receptors was performed by studying the displacement of the binding of a radiolabelled derivative of MCH to the MCH1 receptors. This study was performed on rat and/or mouse brain membrane preparations according to the protocol described below.
(§2) In anticipation of the binding studies, the brains are diluted in HEPES buffer 25 mM (pH: 7.4) containing MgCl2 5 mM, CaCl2 1 mM, homogenized using a Polytron blender for 3 times 20 seconds (speed 25), and are then ultracentrifuged at 22000 rpm and at +4° C. for 30 minutes. The centrifugation pellet is taken up in the same buffer and the membranes are divided into aliquots and stored frozen at −80° C. until the time of use. The membranes are warmed to room temperature and then incubated in the presence of the test compounds, and of […] of an MCH-based radiolabelled molecule, [^125I]-Tyr-S36057 (8-amino-3,6-dioxyoctanoyl MCH 6-17 sold by Perkin-Elmer), in HEPES buffer 25 mM (pH: 7.4) containing MgCl2 5 mM, CaCl2 1 mM, bacitracin 140 mg/L, phenanthroline 1 mM and 0.2% bovine serum albumin. […] The radioactivity retained on the filters is measured using a Gamma scintillation counter. The non-specific binding is determined in the presence of 1 μM of non-radiolabelled S36057. […]

[2] = target: T2, MCH1 receptor (Rattus norvegicus, UniProt P97639); assay: Displacement of [125I]-Tyr-S36057 binding to MCH1 receptors, rat brain membrane preparations; details: in rats, brain membranes, read-out: IC50 (concentration that inhibits 50% of the specific binding)
T2 construct: from tissue; host or cells: rat brain membranes
T2 sequence (P97639 whole entry): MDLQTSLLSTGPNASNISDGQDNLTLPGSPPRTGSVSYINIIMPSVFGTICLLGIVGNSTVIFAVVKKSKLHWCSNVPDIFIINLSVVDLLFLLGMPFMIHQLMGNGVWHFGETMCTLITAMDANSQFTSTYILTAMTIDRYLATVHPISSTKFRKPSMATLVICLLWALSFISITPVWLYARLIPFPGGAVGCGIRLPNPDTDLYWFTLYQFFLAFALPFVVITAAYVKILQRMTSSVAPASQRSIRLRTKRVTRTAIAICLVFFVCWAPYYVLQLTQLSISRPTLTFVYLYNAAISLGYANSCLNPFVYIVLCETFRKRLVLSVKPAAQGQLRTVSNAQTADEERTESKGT
Procedure: as §1, §2

T1 sequence (Q8JZL2 whole entry): as the sequence (P97639 whole entry) above, with T5A, L24F, P27A, S29P, G34R, T138A counted along it

IC50 [1]	IC50 [2]	SMILES
0.2 nM	0.5 nM	COc1ccc2c(C3CCN(Cc4ccccc4)CC3)nnc(NC3CCN(Cc4ccc5c(c4)OCO5)CC3)c2c1 [Example 1, N-[1-(1,3-Benzodioxol-5-ylmethyl)piperidin-4-yl]-4-(1-benzylpiperidin-4-yl)-7-methoxyphthalazin-1-amine Trihydrochloride]
38 nM	52 nM	COc1ccc(-c2nnc(NC3CCN(Cc4ccc(OCCCN(C)C)cc4)CC3)c3cc(OC)ccc23)cc1 [Example 3, N-(1-[{4-[3-(Dimethylamino)propoxy]benzyl}piperidin-4-yl)-7-methoxy-4-(4-methoxy-phenyl)phthalazin-1-aminetrihydrochloride]

From US20090124624A1, “SUBSTITUTED 1-AMINOPHTHALAZINE DERIVATIVES, PREPARATION THEREOF AND THERAPEUTIC APPLICATION THEREOF” (SANOFI-AVENTIS, priority 2005, published 2009)
